US9849151B2, “Salacia compositions, methods of treatment by their administration, and methods of their preparation” (priority 2013, dated 2017)

How the values were obtained:
[1] = Antioxidant activity by DPPH assay; details: at 20 μM
Description: The capacity of plant extracts or fractions to directly react with and quench free radicals was evaluated as described earlier (Cheng et al 2006). A stock solution of DPPH (200 μM) was prepared in ethanol. The assay was performed in 96-well plates. The reaction mixture, containing 100 μL of DPPH and 100 μL of test sample, was incubated at 37° C. for 30 min. The absorbance was measured at 515 nm. Gallic acid was used as a positive control. Percent DPPH radical scavenging activity was calculated as follows. [Reference: Cheng Z, Morre J, Yub L (2006) J Agric Food Chem, 54: 7429-7436] % radical scavenging activity=[1−(sample-blank)/(control-blank)]×100

3T3L1 cells = experiment: Lipolysis assay, glycerol release in 3T3L1 adipocytes; format: cell-based; details: 24 h, Salacia composition 100 ug/ml, isoproterenol 10 uM, ratio higher than 1.40 = enhances lipolysis
Description: The assay is carried out to assess the ability of the extracts to breakdown triglycerides to glycerol and free fatty acids. The Salacia composition, such as that of Example 1 was screened for lipolysis in 3T3L1 cell model. 3T3L1 preadipocytes were cultured for a week in Dulbecco modified Eagle's medium (DMEM) supplemented with 10% new calf serum, 25 mM glucose, 2 mM glutamine, 100 U/ml penicillin, 100 ug/ml streptomycin at 37° C. in 5% CO2 atmosphere until 100% confluence. Two days after confluence, the differentiation of 3T3L1 into adipocytes was initiated using (DMEM) supplemented with 10% fetal bovine serum (FBS), 25 mM glucose, 2 mM glutamine, 100 U/ml penicillin, 100 ug/ml streptomycin and differentiation inducers (0.5 mM isobutyl-methylxanthine (IBMX), 10 μg/ml insulin and 1 μM dexamethasone) for 48 h (day 0-day 2). The cells were then cultured for another 48 h with the same medium containing only 10 μg/ml insulin (day 2 to day 4), then with only the medium (day 4 to day 6). The Salacia composition, such as that of Example 1 was added to the medium at the concentration 100 ug/ml for 24 h and assessed for lipolysis. […] The glycerol released after 24 h in the cell media was assessed using glycerol reagent (sigma) and expressed relative to the cellular protein content. The protein content was assessed using bicinchoninic acid (BCA) PierceTM kit. […]

[2] = system: Hormone Sensitive lipase (HSL); experiment: Hormone Sensitive Lipase assay, Western blot densitometry of adipocyte lysates; format: cell-based; details: 3T3L1 adipocytes treated 24 h, non-treated = 1.00
Description: The glycerol released after 24 h in the cell media was assessed using glycerol reagent (sigma) and expressed relative to the cellular protein content. The protein content was assessed using bicinchoninic acid (BCA) PierceTM kit. […] Proteins were collected from cell lysates of 3T3L1 adipocytes treated for 24 h with the Salacia composition or isoproterenol. Protein samples were blotted and probed for total hormone sensitive lipase (HSL), and phosphorylated hormone sensitive lipase at […]. Then, the ratio of phosphorylated-HSL to total HSL was compared between treated and non-treated samples.

| SMILES | % radical scavenging activity (DPPH) [1] [%] | Glycerol/protein ratio (3T3L1 cells) | Phospho-HSL (densitometry) ([2]; Serine 563) | Ratio phosphorylated-HSL/Total HSL [2] | Total HSL (densitometry) [2] |
| --- | --- | --- | --- | --- | --- |
| O=C(O)c1cc(O)c(O)c(O)c1 [Gallic acid] | 86 |  |  |  |  |
| CC(C)NCC(O)c1ccc(O)c(O)c1 (centres unmarked) [Isoproterenol] |  | 1.50 | 2.63 | 1.01 | 2.60 |
